The results in this text go back to patent US4780467A, “Esters of N-alkyl-nortropines and their quaternary derivatives having anti-bronchospastic activity, and pharmaceutical compositions containing them” (Laboratori Guidotti Spa, priority 1986, dated 1988).

Test [1] deals with bronchospasm induced by acetyl choline aerosol in guinea pig. Nature of the test: inhibition of bronchospasm induced by acetyl choline aerosol in awake guinea pig. In kind it is in vivo. To be noted: for ED50: Cavia porcellus, iv.
In test [2] the test system is isolated trachea of guinea pig. Nature of the test: relaxation of isolated trachea of guinea pig precontracted with methacoline. To be noted: Cavia porcellus, read-out: IC50, relaxing the contraction of the isolated trachea of guinea pig precontracted with methacoline. The text has this:
The compounds of the invention have been pharmacologically studied by means of in vitro and in vivo tests, suitable to evidence the anti-bronchospastic properties of the compounds. […] To this action a remarkable anti-bronchospastic action in the tests in vivo corresponded after administration by i.v. and inhalatory route.

Regarding `CC[N+]1(C(C)C)[C@@H]2CC[C@H]1C[C@@H](OC(=O)C1CCCC=C1c1ccccc1)C2` (some centres unmarked) [1st formula, 1st R, 4th R'], the “ED50, inhibition of bronchospasm induced by acetyl choline aerosol” value in test [1] (i.v.) is on record as ~ 5900 nmol kg^-1.

As for `CC[N+]1(CC(C)C)[C@@H]2CC[C@H]1C[C@@H](OC(=O)C1CCCC=C1c1ccccc1)C2` (some centres unmarked) [1st formula, 1st R, 6th R'], the ED50 – broadly, the midpoint of the dose-response relation – in test [1] is more than 5.7 µmol/kg. The IC50 (usually the concentration that gives 50% inhibition) in test [2] came out at 54 nM.

`CCCC[N+]1(CC)[C@@H]2CC[C@H]1C[C@@H](OC(=O)C1CCCC=C1c1ccccc1)C2` (some centres unmarked) [1st formula, 1st R, 7th R']: the IC50 in test [2] was found to be 69 nM.

The compound `CC(C)[N+]1(C(C)C)[C@@H]2CC[C@H]1C[C@@H](OC(=O)C1CCCC=C1c1ccccc1)C2` (some centres unmarked) [1st formula, 2nd R, 4th R'] gave an ED50 in test [1] of 2.5 µmol/kg. Further, the IC50 in test [2] came out at 46 nM.

On to `CC(C)C[N+]1(C(C)C)[C@@H]2CC[C@H]1C[C@@H](OC(=O)C1CCCC=C1c1ccccc1)C2` (some centres unmarked) [1st formula, 2nd R, 6th R'], for which the 50% effect level in test [1] (ED50) was put at a dose of 1.08 µmol/kg. The IC50 in test [2] amounted to 80 nM.

Turning to `CCCC[N+]1(C(C)C)[C@@H]2CC[C@H]1C[C@@H](OC(=O)C1CCCC=C1c1ccccc1)C2` (some centres unmarked) [1st formula, 2nd R, 7th R'], in test [1], it took a dose of 0.99 µmol/kg to reach the 50% effect level (ED50). The IC50 in test [2] amounted to 45 nM.

`CCC[N+]1(C(C)C)[C@@H]2CC[C@H]1C[C@@H](OC(=O)C1CCCC=C1c1ccccc1)C2` (some centres unmarked) [1st formula, 3rd R, 4th R']: in test [1], the ED50 was more than 5.7 µmol/kg.

In the case of `CCC[N+]1(CCC)[C@@H]2CC[C@H]1C[C@@H](OC(=O)C1CCCC=C1c1ccccc1)C2` (some centres unmarked) [1st formula, 3rd R, 5th R'], the concentration for half-maximal inhibition (IC50) in test [2] worked out at 380 nM.

In the case of `CCC[N+]1(CC(C)C)[C@@H]2CC[C@H]1C[C@@H](OC(=O)C1CCCC=C1c1ccccc1)C2` (some centres unmarked) [1st formula, 3rd R, 6th R'], the ED50 in test [1] was more than 5.6 µmol/kg. In addition, in test [2], the IC50 was found to be 1200 nM.

Consider `CCCC[N+]1(CCC)[C@@H]2CC[C@H]1C[C@@H](OC(=O)C1CCCC=C1c1ccccc1)C2` (some centres unmarked) [1st formula, 3rd R, 7th R'], for which, in test [1], the ED50 was more than 5.6 µmol/kg. For the same compound, the IC50 in test [2] stood at 190 nM.

The compound `CC(C)[N+]1(C)[C@@H]2CC[C@H]1C[C@@H](OC(=O)CC1=C(c3ccccc3)CCCC1)C2` (some centres unmarked) [2nd formula, 1st R, 4th R'] displayed a median effective dose (ED50) in test [1] of more than 0.6 µmol/kg.

`CCC[N+]1(C)[C@@H]2CC[C@H]1C[C@@H](OC(=O)CC1=C(c3ccccc3)CCCC1)C2` (some centres unmarked) [2nd formula, 1st R, 5th R'] returned an ED50 in test [1] of more than 0.6 µmol/kg. Besides, in test [2], the IC50 came to 240 nM.

With `CC(C)[N+]1(C(C)C)[C@@H]2CC[C@H]1C[C@@H](OC(=O)CC1=C(c3ccccc3)CCCC1)C2` [2nd formula, 2nd R, 4th R'], in test [1], the ED50 is more than 5.6 µmol/kg. The IC50 in test [2] is 67000 nM.

In turn, `CCC[N+]1(C(C)C)[C@@H]2CC[C@H]1C[C@@H](OC(=O)CC1=C(c3ccccc3)CCCC1)C2` (some centres unmarked) [2nd formula, 2nd R, 5th R'] registered an ED50 in test [1] of more than 5.6 µmol/kg. Moreover, the IC50 in test [2] turned out to be 8500 nM.

`CC(C)N1[C@@H]2CC[C@H]1C[C@@H](OC(=O)C1CCCC=C1c1ccccc1)C2` (stereo partly drawn) [Example 1, Endo-3-(2-phenyl-2-cyclohexen-1-carbonyloxy)-8-sin-isopropyl-8-azabicyclo-[3.2.1]-octane] yielded an ED50 in test [1] of approximately 1.5 µmol/kg. For the same compound, the IC50 in test [2] is 350 nM.

In the case of `CCN1[C@@H]2CC[C@H]1C[C@@H](OC(=O)C1CCCC=C1c1ccccc1)C2` (stereo partly drawn) [Example 4, Endo-3-(2-phenyl-2-cyclohexen-1-carbonyloxy)-8-sin-ethyl-8-azabicyclo-[3.2.1.]-octane], in test [1], the ED50 turned out to be 6.12 µmol/kg. In addition, the IC50 in test [2] is 280 nM.

The compound `CCC[N+]1(CC)[C@@H]2CC[C@H]1C[C@@H](OC(=O)C1CCCC=C1c1ccccc1)C2` (stereo partly drawn) [Example 26, Endo-3-(2-phenyl-2-cyclohexen-1-carbonyloxy)-8-sin-propyl-8-ethyl-8-azoniabicyclo-[3.2.1.]-octane iodide] yielded an ED50 in test [1] of 0.228 µmol/kg.

In the case of `CC(C)[N+]1(C)[C@@H]2CC[C@H]1C[C@@H](OC(=O)CC1=C(c3ccccc3)CCCC1)C2` (stereo partly drawn) [Example 31, Endo-3-(2-phenyl-1-cyclohexen-1-acetoxy)-8-sin-isopropyl-8-methyl-8-azoniabicyclo-[3.2.1.]-octane iodide], the IC50 in test [2] turned out to be 27 nM.
